Literature values, collected in article PMC12009570 (International Journal of Nanomedicine, 2025).

Columns and labels:
[1] = not given; remark: listed apart in the source

SMILES: Cl.O=C1[C@@H]2[C@H]3CC[C@H](C3)[C@@H]2C(=O)N1C[C@@H]1CCCC[C@H]1CN1CCN(c2nsc3ccccc23)CC1 [LSD, Lurasidone hydrochloride]
- oral bioavailability (conventional tablets, oral): 9–19%
- AUC, times higher than in the fasted state (food effect): 2 times
- Cmax, times higher than in the fasted state (food effect): 3 times
- pH at which most soluble [1]: 3.8
